Format in all cases: biochemical
One assay deals with glutamine synthetase. Nature of the assay: Metabolism of glutamic acid to glutamine in wheat germ cell-free system, 1H-15N HSQC of synthesized yeast ubiquitin. The procedure: (§1) The mixed solution was allowed to react for 2 days with a dialysis buffer solution, wherein only one type of amino acid had been labeled with ^15N (manufactured by Cambridge Isotope Laboratories) and 19 types of remaining amino acids were ordinary amino acids. Thereafter, the dialysis buffer solution was exchanged with a fresh buffer solution, and the protein synthesis reaction was carried out further for 2 days. Thereafter, 1 ml of the reaction solution was concentrated to 250 μl using a Centricon-3 ultrafiltration concentration device manufactured by Millipore. […] The concentrated solution was passed through a Micro Spin G-25 gel filtration column manufactured by Amersham that had previously been equilibrated with a buffer solution used for NMR measurement (50 mM sodium phosphate, pH 6.5, 100 mM NaCl), so that the buffer solution was exchanged with a buffer solution used for the measurement, thereby preparing an NMR measurement sample.
(§2) For the NMR measurement, an Avance-500 spectrometer manufactured by Bruker was used. In order to maintain the stability of a magnetic field, 10% D2O used for NMR lock was added to the measurement sample, and thereafter, ^1H-^15N HSQC measurement was carried out. The measurement temperature was set at 30° C.
(§3) Subsequently, the concentration of aminooxyacetic acid in a translation solution and an external dialysis solution was set at 1 mM. The following 3 types of substrate amino acids were prepared: (1) only alanine was labeled with ^15N and 19 types of remaining amino acids were ordinary amino acids; (2) only aspartic acid was labeled with ^15N and 19 types of remaining amino acids were ordinary amino acids; and (3) only glutamic acid was labeled with ^15N and 19 types of remaining amino acids were ordinary amino acids. Using these substrate amino acids, yeast ubiquitins were synthesized by the same method as described in Example 1, and the ^1H-^15N HSQC was measured. […] Moreover, the aforementioned experiment was carried out under conditions whereby the concentration of aminooxyacetic acid was set at 0.1 μM, 1 μM, 10 μM, 100 μM, and 1 mM.
(§4) Subsequently, the concentration of aminooxyacetic acid was set at 1 mM and the concentration of L-methionine sulfoximine was set at 0.1 mM in a translation solution and an external dialysis solution. Substrate amino acid was prepared such that only glutamic acid was labeled with ^15N and 19 types of remaining amino acids were ordinary amino acids. Using such substrate amino acid, yeast ubiquitin was synthesized by the same method as described in examples, and the ^1H-^15N HSQC was measured. […] Moreover, the aforementioned experiment was carried out under conditions whereby the concentration of L-methionine sulfoximine was set at 0.1 μM, 1 μM, 10 μM, and 100 μM.

Assay [1] deals with cell-free protein synthetic system containing a wheat germ extract. Put plainly: Amount of GFP synthesized by wheat germ cell-free protein synthesis (GFP fluorescence intensity).
The subject of another assay is transaminase. Nature of the assay: Amino acid metabolism by transaminase in wheat germ cell-free system, 1H-15N HSQC of synthesized yeast ubiquitin. Particulars: for metabolism of glutamic acid to aspartic acid: only glutamic acid labeled with 15N. The procedure: as §1, §2, §3, §4

Molecules are shown by their SMILES.

Consider `CS(=N)(=O)CC[C@H](N)C(=O)O` (stereo partly drawn) [L-methionine sulfoximine], for which the “metabolism of glutamic acid to glutamine” value in the assay on glutamine synthetase (0.1 mM L-methionine sulfoximine plus 1 mM aminooxyacetic acid, only glutamic acid labeled with 15N, FIG. 8) was “suppressed”. Besides, the “inhibition of the metabolism” value with glutamine synthetase (L-methionine sulfoximine 10 μM) is reported as “two thirds”; with glutamine synthetase (L-methionine sulfoximine 100 μM or more), “completely inhibited”. The “amount of GFP synthesized” value in assay [1] (L-methionine sulfoximine 20 mM or less in external dialysis solution and reaction solution, FIG. 7) is “not reduced”.

For `NOCC(=O)O` [aminooxyacetic acid], in the assay with glutamine synthetase (1 mM aminooxyacetic acid, only glutamic acid labeled with 15N, FIG. 6), the “activity of metabolizing glutamic acid to glutamine” value is recorded as “has still remained”. Further, the “amount of GFP synthesized” value in assay [1] (aminooxyacetic acid 4 mM or less in external dialysis solution and reaction solution, FIG. 4) is “not reduced”. Moreover, in assay [1] (aminooxyacetic acid 10 mM, FIG. 4), the “synthesized amount of GFP maintained” value was “approximately 70%”. The “metabolism of glutamic acid to aspartic acid” value is on record as “suppressed” in the assay on transaminase (1 mM aminooxyacetic acid plus 0.1 mM L-methionine sulfoximine, FIG. 8) and “suppressed” in the assay with transaminase (1 mM aminooxyacetic acid, FIG. 6). Also, the “HSQC signals observed (selective labeling)” value in the assay on transaminase (1 mM aminooxyacetic acid, only alanine labeled with 15N, FIG. 5A) is “only signal derived from alanine or aspartic acid was observed”; with transaminase (1 mM aminooxyacetic acid, only aspartic acid labeled with 15N, FIG. 5B) it was “only signal derived from alanine or aspartic acid was observed”. For the same molecule, the “inhibition of the metabolism” value is “two thirds” in the assay on transaminase (aminooxyacetic acid 10 μM) and “completely inhibited” in the assay with transaminase (aminooxyacetic acid 100 μM or more).
